The results in this text go back to patent US6548527B2, “Treatments for immune-mediated ear disorders” (The General Hospital Corporation, priority 2000, dated 2003).

Holding throughout (type): in vivo, human
The test system of data set [1] is patients with IMCVD. Nature of the data set: Initial trials of leflunomide in patients with IMCVD (20 mg orally every day). To be noted: of 3 patients, 5-6 month or 1-year regimen.
Data set [2] relates to patients with progressive IMCVD. Put plainly: Etanercept treatment of twelve patients with progressive IMCVD (25 mg subcutaneous injection twice a week). An excerpt: Study subjects were suspected of having IMCVDs mainly based on (1) the presence of bilateral sensorineural healing loss or typical symptoms of Meniere's disease with a recent progressive decline, (2) a clear response to high dose prednisone therapy, and/or (3) the presence of anti-HSP70 antibodies. Reasons for attempting etanercept therapy in these study patients included: (a) failure of conventional treatments in seven, (b) side effects of conventional treatment in three, (c) the need for corticosteroid sparing agent with a quick onset of action given intolerable corticosteroid side effects and rapidly progressive worsening of hearing in three, and (d) the patient's wish to avoid conventional agents in two given their known side effects of sub-optimal efficacy profile.
Of the 12 patients, six (50%) were women. The mean age was 47 (range, 24 to 71), and the mean duration of disease prior to the etanercept therapy was 13 years (range, 2 to 25 years). All 12 patients had both ears involved, 2 had predominantly one ear involvement with good hearing in the contralateral ear, 4 had significant loss of hearing in both ears, and 6 had lost all functional hearing in one ear and were treated with etanercept for a recent progressive decline of the remaining hearing. […] Patient # 9 had symmetric polyarthralgia, morning stiffness without documented synovitis, negative rheumatoid factor and positive anti-nuclear antibodies. Four of the 10 patients who were tested had antibodies to HSP70. Previous anti-rheumatic treatments included methotrexate in five, cyclophosphamide (CYTOXAN) in two, hydroxycholoquine in one, and chlorambucil in one. All patients received a trial of diuretics and sodium-restricted diet. Two of the patients had hypertension, one had diet-controlled diabetes mellitus, one had hyperlipidemia, and one had hypothyroidism.
Etanercept was started while the patients were on high dose prednisone (except in 2 cases, who were already off prednisone because of intolerable side-effects). The prednisone dose was then tapered off over 2 to 6 weeks (except in 2 cases) depending on disease severity, response to prednisone, and the severity of side effects of prednisone. The mean duration of the etanercept treatment in the 12 patients was 7 months (82 patient-months; range, 5 to 10 months) and mean follow-up from the start date of etanercept therapy was 8 months (range: 5.66 to 12 months). Seven of the twelve patients were still on etanercept at the end of study period (mean duration of 7 months) and the remaining five discontinued the drug. Four patients discontinued the drug at the end of the target period (6 months), and one patient was switched to infliximab (Remicade™), another TNF-receptor blocker for less than desired benefit from etanercept (duration 9 months). A criteria of prednisone response was based on improvements in hearing, vertigo, and equilibrium, as previously published by Sismanis et al. (Otolaryngology—Head and Neck Surgery 116(2): 146-52, 1997).
The main outcome measurement was improvement or stabilization of hearing by air conduction pure tone audiograms and/or by word discrimination scores. A slightly modified version of improvement criteria which was previously used to evaluate the efficacy of glucocorticoids was employed for IMCVDs: >15 dB at one frequency, 10 dB at two or more consecutive frequencies, or 15% increase in word discrimination scores (Sismanis et al., supra; Rauch, Annals of the New York Academy of Sciences 830:203-210, 1997). The audiogram before initiation of etanercept was compared with the most recent audiogram. When present, vertigo, tinnitus, and fullness were assessed using a 3-level response scale: better, no change, and worse. Outcomes were based on measurements at the farthest follow-up from the initiation of etanercept or at the declaration of no improvement in hearing by etanercept therapy, whichever came first. More than a 5-month follow-up was available for all patients (range: 5-12 months) […]

Data set [3] deals with patients with IMCVD. Put plainly: Two other separate trials of etanercept in additional IMCVD patients.
Data set [4] deals with patients with IMCVD. Nature of the data set: Infliximab trial in patients with IMCVD (3 mg/kg intravenous infusion every two months). As to conditions: of 3 patients; 3 mg/kg i.v. infusion every two months, at least 6 months. How it is done:
In addition to etanercept, another TNF antagonist, infliximab, was also tested for efficacy. In this trial, 3 patients with IMCVD were treated with 3 mg/kg body weight of Remicade™ by intravenous infusion every two months. Treatment was continued for at least 6 months, and the patients were monitored.

The mark [5] stands for this setting: single patient #1 on etanercept.

As to `Cc1oncc1C(=O)Nc1ccc(C(F)(F)F)cc1` [leflunomide, N-(4′-trifluoromethylphenyl)-5-methylisoxazole-4-carboxamide], in the data set with patients with IMCVD [1], the “patients exhibiting positive results” value worked out at 2 patients. In addition, in data set [2] (single patient #8, leflunomide added to etanercept), the “overall hearing after leflunomide was later added, patient #8” value is reported as “did not make any difference”. In data set [2] (single patient #11, leflunomide added to etanercept after deterioration), the “hearing outcome after addition of leflunomide to etanercept, patient #11” value is “rescued and stabilized”.

Take etanercept: the “patients who had aural fullness with resolution or significant improvement of symptoms” value in data set [2] (8 out of 9 patients who had aural fullness) is 89%. Moreover, the “patients on prednisone able to taper off prednisone without affecting their hearing” value in data set [2] (10 patients on variable doses of prednisone to maintain hearing, after starting etanercept) is recorded as “Eight of the 10”. For the same molecule, in data set [2] (11 out of 12 patients, 25 mg s.c. twice a week, follow-up 5-12 months), the “patients with improvement or stabilization of hearing and tinnitus” value came out at 92%. Further, in data set [2] (12 patients, 25 mg s.c. twice a week), the adverse reactions entry is “no adverse reactions except for mild transient injection-site reactions in a few patients”. Also, in data set [2] (Seven out of 8 patients who had vertigo), the “patients who had vertigo with resolution or significant improvement of symptoms” value came to 88%. Also, in data set [2] (follow-up period), the “side effects during the follow-up period” value is given as “no appreciable side effects”. Moreover, the “persistence of benefit until the last visit, time after starting etanercept” value in data set [2] (human, in vivo) lay in the range of 5 to 12 months. Also, in data set [2] (setting [5]), the “hearing fluctuation, tinnitus, aural fullness and vertigo, patient #1” value is “the fluctuation stabilized and their tinnitus, aura fullness, and vertigo resolved”; the “overall hearing, patient #1” value was “did not have any significant improvement”. The “tinnitus and vertigo after switching to etanercept, patient #8” value in data set [2] (single patient #8) is reported as “improvement”. Further, the “hearing outcome, patient #8 switched to etanercept” value in data set [2] (single patient #8, previously losing hearing on methotrexate and chlorambucil) is “stabilized their hearing after being switched to etanercept but at a lower level than their baseline”. The “hearing outcome, patient #11 on etanercept” value in data set [2] (single patient #11) is “initial dramatic improvement after starting etanercept but deteriorated after 5 months”. Moreover, in data set [2] (summary of 12 patients), the “patients who experienced improvement in tinnitus, aural fullness, and vertigo” value is listed as “approximately 90%”; the “patients who stabilized their rapidly progressing hearing loss” value was found to be 33%; the “patients with remarkable improvement of hearing” value is reported as 58%. The “patients showing positive outcomes” value in the data set with patients with IMCVD [3] (in sum, out of 18 patients with IMCVD treated with etanercept (all trials)) stood at 16 patients. Further, the “outcome of IMCVD symptoms in additional patients” value in the data set on patients with IMCVD [3] (six additional patients in two other separate trials) is given as “all showed improvement or stabilization of IMCVD symptoms”.

Turning to “infliximab: chimeric monoclonal antibody that binds to TNF-α, marketed as Remicade”, in the data set on patients with IMCVD [4], the “patients exhibiting positive results” value stood at 3 patients. Further, the “hearing after switch from etanercept to infliximab, patient #11” value in data set [2] (single patient #11, switched after 9 months on etanercept) is “remained unchanged”.
